Measured values published in patent US20200071310A1, “N-ARYL PYRAZOLES AS NRF2 REGULATORS” (GLAXOSMITHKLINE INTELLECTUAL PROPERTY DEVELOPMENT LIMITED, priority 2016, published 2020).
Where a name gives a salt, the structure may show the parent alone. Read-outs that look alike come from different tables or passages of the source.

Columns and labels:
[1] = tested on: NQO1 specific enzyme activity in BEAS-2B cells; experiment: BEAS-2B NQO1 MTT Assay; format: cell-based; details: NQO1 specific activity induction, BEAS-2B cells, 48 hours, read-out: EC50
Text: NAD(P)H:quinone oxidoreductase 1 (NQO1), also called DT diaphorase, is a homodimeric FAD-containing enzyme that catalyzes obligatory NAD(P)H-dependent two-electron reductions of quinones and protects cells against the toxic and neoplastic effects of free radicals and reactive oxygen species arising from one-electron reductions. The transcription of NQO1 is finely regulated by NRF2, and thus NQO1 activity is a good marker for NRF2 activation. On day one, frozen BEAS-2B cells (ATCC) were thawed in a water bath, counted, and re-suspended at a concentration of 250,000 cells/mL. Fifty microliters of cells were plated in 384 well black clear-bottomed plates. Plates were incubated at 37° C., 5% CO2 overnight. On day two, plates were centrifuged and 50 nL of compound or controls were added to the cells. Plates were then incubated at 37° C., 5% CO2 for 48 hours. On day four, medium was aspirated from the plate and crude cell lysates were made by adding 13 uL of 1× Cell Signaling Technologies lysis buffer with 1 Complete, Mini, EDTA-free Protease Inhibitor Tablet (Roche) for each 10 mL of lysis buffer. After lysis plates were incubated for 20 minutes at room temperature. Two microliters of lysate were removed for use in Cell Titer Glo assay (Promega) and MTT cocktail was prepared (Prochaska et. al. 1998) for measurement of NQO1 activity. Fifty microliters of MTT cocktail is added to each well, plate is centrifuged, and analyzed on an Envision plate reader (Perkin Elmer) using Absorbance 570 nm label for 30 minutes. Product formation was measured kinetically and the pEC50 of NQO1 specific activity induction was calculated by plotting the change in absorbance (Delta OD/min) versus the log of compound concentration followed by 3-parameter fitting. pEC50 is the negative log of the EC50.

[2] = tested on: histologic abnormalities, especially hepatic fibrosis; details: rats on a choline-deficient L-amino acid-defined diet; cited from earlier work
[3] = tested on: COPD macrophages and alveolar macrophages from cigarette smoke-exposed mice; details: cited from earlier work
cortical damage = details: rats, cerebral ischemia-reperfusion model; cited from earlier work
[4] = tested on: cortical glutathione levels; details: NRF2 wild-type but not KO mice; cited from earlier work

Compound: CCOc1ccc(Br)cc1CN(Cc1cccc(-n2ncc(C(=O)O)c2[C@@H]2C[C@H]2c2cn(C)nn2)c1)C1CC1 (relative stereo) [Example 55, 1-(3-(((5-bromo-2-ethoxybenzyl)cyclo-propyl)amino)methyl)phenyl)-5-((trans)-2-(1-methyl-1H-1,2,3-triazol-4-yl)cyclopropyl)-1H-pyrazole-4-carboxylic acid trifluoroacetate]
- EC50 [1]: 100 to 1000 nM

Compound: C[C@H]1Cc2ccc(C(F)(F)F)cc2S(=O)(=O)N([C@@H]2CCc3c2cccc3-n2ncc(C(=O)O)c2[C@@H]2C[C@H]2c2cn(C)nn2)C1 [Example 26b, 1-((R)-1-((S)-4-Methyl-1,1-dioxido-8-(trifluoromethyl)-4,5-dihydrobenzo[f][1,2]thiazepin-2(3H)-yl)-2,3-dihydro-1H-inden-4-yl)-5-((1R,2R)-2-(1-methyl-1H-1,2,3-triazol-4-yl)cyclopropyl)-1H-pyrazole-4-carboxylic acid]
- EC50 ([1]; Homo sapiens): 1000 to 10000 nM

Compound: O=C(NCc1ccccn1)Nc1nnc(-c2ccco2)o1 [NK-252]
- progression of histologic abnormalities, especially hepatic fibrosis [2]: significantly attenuated

Compound: C[S+]([O-])CCCCN=C=S (centres unmarked) [Sulforaphane]
- expression of Macrophage Receptor with Collagenous structure (MARCO) ([3]; COPD macrophages and alveolar macrophages from cigarette smoke-exposed mice): increases
- bacterial phagocytosis (Pseudomonas aeruginosa, non-typable Haemophilus influenzae) and bacterial clearance ([3]; ex vivo and in vivo): improving

Compound: Cc1c(-c2cnccn2)ssc1=S [oltipraz]
- progression of histologic abnormalities, especially hepatic fibrosis [2]: significantly attenuated

Compound: CC(C)(C)c1cc(O)ccc1O [tert-butylhydroquinone]
- cortical damage (cortical damage): reduced cortical damage
- cortical glutathione levels [4]: increased in NRF2 wild-type but not KO mice
